# Measured values: PMC5896373 (Molecular Pharmacology, 2018)
# pIC50: −log10 of the molar value. Values joined by “and” are separate entries in the source; they are usually repeats but may differ in a detail not shown here. Equal values may be shown once.
# Columns and labels:
# P2X7R point mutant A91C = biological target: T1, P2X7R point mutant A91C (Homo sapiens, UniProt Q99572, A91C/I21V/M24R/N16P/N25R/Q22R/R20V/S23N/T19I/Y26L); test: cell-based
# T1 construct: expressed in transfected cells; host or cells: Xenopus laevis oocytes (cRNA injection)
# Experimental: (§1) Injected oocytes were stored at 16°C in ND96 buffer [in millimolar concentrations, NaCl 96, KCl 2, CaCl2 1.8, MgCl2 1, sodium pyruvate 5, and HEPES 5 (pH 7.6) supplemented with 50 μg/ml gentamycin and 50 μg/ml tetracycline]. Three to seven days postinjection two-electrode voltage clamp recordings were made from oocytes bathed in divalent-free ND96 buffer (in millimolar concentrations, NaCl 96, KCl 2, sodium pyruvate 5, HEPES 5, and 0.1 flufenamic acid, pH 7.6). Oocytes were voltage clamped at a holding potential of −60 mV with a GeneClamp500B amplifier (Molecular Devices).
# (§2) Inhibition by the antagonists was expressed as the percentage of the peak current amplitude of an EC90 concentration of ATP recorded before the application of antagonist (ATP gave reproducible responses to ATP in the absence of antagonist). Inhibition curves were fitted with the Hill equation (variable slope) using GraphPad Prism 6 (GraphPad Software, San Diego, CA). […] Individual concentration-response curves were generated for individual experiments, and statistical analysis was carried out on the data generated. […] Data are shown as mean ± S.E.M. In all cases n ≥ 3 for all data points.
# P2X7-2Nβ receptor = biological target: T2, P2X7-2Nβ receptor (Homo sapiens, UniProt Q99572, I21V/M24R/N16P/N25R/Q22R/R20V/S23N/T19I/Y26L); test: Two-electrode voltage clamp of ATP-evoked currents in Xenopus oocytes; assay type: cell-based; settings: inhibition of EC90 ATP response
# T2 construct: expressed in transfected cells; host or cells: Xenopus laevis oocytes (cRNA injection)
# hP2X1R = biological target: T3, hP2X1R (Homo sapiens, UniProt P51575); test: as above; assay type: cell-based
# T3 construct: expressed in transfected cells; host or cells: Xenopus laevis oocytes (cRNA injection)
# P2X7R point mutant F88W = biological target: T4, P2X7R point mutant F88W (Homo sapiens, UniProt Q99572, F88W/I21V/M24R/N16P/N25R/Q22R/R20V/S23N/T19I/Y26L); test: as above; assay type: cell-based; settings: EC90 ATP, mean ± S.E.M.
# T4 construct: expressed in transfected cells; host or cells: Xenopus laevis oocytes (cRNA injection)
# Experimental: (§3) Additional point mutants were made using the QuikChange mutagenesis kit (Stratagene California, La Jolla, CA). The production of the correct mutations and absence of coding errors was determined by DNA sequencing (Automated ABI Sequencing Service, University of Leicester, UK). cRNA was generated for the mutants and 50 nl (50 ng) was injected into manually defoliculated stage V Xenopus laevis oocytes using an Inject+Matic microinjector (J.A. Gabay, Inject+Matic, Geneva, Switzerland). Injected oocytes were stored at 16°C in ND96 buffer [in millimolar concentrations, NaCl 96, KCl 2, CaCl2 1.8, MgCl2 1, sodium pyruvate 5, and HEPES 5 (pH 7.6) supplemented with 50 μg/ml gentamycin and 50 μg/ml tetracycline]. Three to seven days postinjection two-electrode voltage clamp recordings were made from oocytes bathed in divalent-free ND96 buffer (in millimolar concentrations, NaCl 96, KCl 2, sodium pyruvate 5, HEPES 5, and 0.1 flufenamic acid, pH 7.6). Oocytes were voltage clamped at a holding potential of −60 mV with a GeneClamp500B amplifier (Molecular Devices).
# Inhibition by the antagonists was expressed as the percentage of the peak current amplitude of an EC90 concentration of ATP recorded before the application of antagonist (ATP gave reproducible responses to ATP in the absence of antagonist). […]
# P2X7R point mutant P96A = biological target: T5, P2X7R point mutant P96A (Homo sapiens, UniProt Q99572, I21V/M24R/N16P/N25R/P96A/Q22R/R20V/S23N/T19I/Y26L); test: as above; assay type: cell-based; settings: EC90 ATP, mean ± S.E.M.
# T5 construct: expressed in transfected cells; host or cells: Xenopus laevis oocytes (cRNA injection)
# Experimental: as §1, §2
# P2X7R point mutant S165F = biological target: T6, P2X7R point mutant S165F (Homo sapiens, UniProt Q99572, I21V/M24R/N16P/N25R/Q22R/R20V/S165F/S23N/T19I/Y26L); test: as above; assay type: cell-based; settings: EC90 ATP, mean ± S.E.M.
# T6 construct: expressed in transfected cells; host or cells: Xenopus laevis oocytes (cRNA injection)
# Experimental: as §1
# Inhibition by the antagonists was expressed as the percentage of the peak current amplitude of an EC90 concentration of ATP recorded before the application of antagonist (ATP gave reproducible responses to ATP in the absence of antagonist). Inhibition curves were fitted with the Hill equation (variable slope) using GraphPad Prism 6 (GraphPad Software, San Diego, CA). […] Individual concentration-response curves were generated for individual experiments, and statistical analysis was carried out on the data generated. When shown in figures, the inhibition curves are fitted to the mean normalized data. […] Data are shown as mean ± S.E.M. In all cases n ≥ 3 for all data points.
# [1] = biological target: T7, chimeric P2X7/1 receptor 89–94 (Homo sapiens, UniProt Q99572, I21V/M24R/N16P/N25R/Q22R/R20V/S23N/T19I/T90V/T94V/Y26L); design: method as in Allsopp et al., 2017; settings: chimera 89–94; ref Allsopp et al., 2017; cited from earlier work
# T7 construct: expressed in transfected cells; host or cells: Xenopus laevis oocytes (cRNA injection)
# T7 sequence (Q99572 1-595 N16P/T19I/R20V/I21V/Q22R/S23N/M24R/N25R/Y26L/T90V/T94V): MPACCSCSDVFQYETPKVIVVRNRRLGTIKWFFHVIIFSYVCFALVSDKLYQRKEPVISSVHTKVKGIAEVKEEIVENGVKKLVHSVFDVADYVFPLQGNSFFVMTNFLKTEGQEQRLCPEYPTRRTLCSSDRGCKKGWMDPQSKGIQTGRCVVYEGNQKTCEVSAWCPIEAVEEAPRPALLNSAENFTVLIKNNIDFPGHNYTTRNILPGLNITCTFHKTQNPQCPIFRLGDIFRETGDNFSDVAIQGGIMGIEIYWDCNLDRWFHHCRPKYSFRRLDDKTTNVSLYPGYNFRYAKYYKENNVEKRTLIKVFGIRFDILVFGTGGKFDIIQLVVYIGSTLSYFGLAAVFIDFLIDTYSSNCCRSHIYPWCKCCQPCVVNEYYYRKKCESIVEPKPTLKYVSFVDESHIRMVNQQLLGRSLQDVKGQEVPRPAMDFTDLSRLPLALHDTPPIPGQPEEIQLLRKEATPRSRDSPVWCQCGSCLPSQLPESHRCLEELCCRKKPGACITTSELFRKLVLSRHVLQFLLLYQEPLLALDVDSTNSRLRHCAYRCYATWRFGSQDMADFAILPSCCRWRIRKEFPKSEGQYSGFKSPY
# P2X7R mutant Insert G99 = biological target: T8, P2X7R mutant Insert G99 (Homo sapiens, UniProt Q99572, I21V/INS99D/M24R/N16P/N25R/Q22R/R20V/S23N/T19I/Y26L); design: method as in Allsopp et al., 2017; settings: aspartic acid inserted between G99 and N100; ref Allsopp et al., 2017; cited from earlier work
# T8 construct: expressed in transfected cells; host or cells: Xenopus laevis oocytes (cRNA injection)
# T8 sequence (Q99572 with tags, fused parts or gaps N16P/T19I/R20V/I21V/Q22R/S23N/M24R/N25R/Y26L/INS99D): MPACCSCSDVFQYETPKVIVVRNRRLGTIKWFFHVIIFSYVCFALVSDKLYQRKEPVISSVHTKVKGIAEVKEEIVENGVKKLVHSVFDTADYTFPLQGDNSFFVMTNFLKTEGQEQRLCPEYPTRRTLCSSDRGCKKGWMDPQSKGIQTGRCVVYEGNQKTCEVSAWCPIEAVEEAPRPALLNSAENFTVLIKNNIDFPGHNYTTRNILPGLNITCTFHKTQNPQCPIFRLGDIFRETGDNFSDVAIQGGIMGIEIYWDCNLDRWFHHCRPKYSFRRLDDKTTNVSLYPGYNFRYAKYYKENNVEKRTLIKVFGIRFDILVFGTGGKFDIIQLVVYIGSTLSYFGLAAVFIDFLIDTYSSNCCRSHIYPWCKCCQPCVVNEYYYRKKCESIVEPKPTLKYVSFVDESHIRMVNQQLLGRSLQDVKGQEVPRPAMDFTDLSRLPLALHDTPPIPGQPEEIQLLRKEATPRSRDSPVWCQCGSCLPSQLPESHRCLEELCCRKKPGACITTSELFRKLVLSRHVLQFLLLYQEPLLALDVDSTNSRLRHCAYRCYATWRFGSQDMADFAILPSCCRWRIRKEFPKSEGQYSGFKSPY
# [2] = test system: chimeric P2X7/1 receptor 112–118; test: cell-based; assay type: cell-based, human; settings: chimera 112–118
# Experimental: as §3, §2
# [3] = test system: P2X7R left flipper point mutant N284A; test: Two-electrode voltage clamp of ATP-evoked currents in Xenopus oocytes; assay type: cell-based, human
# Experimental: The production of the correct mutations and absence of coding errors was determined by DNA sequencing (Automated ABI Sequencing Service, University of Leicester, UK). cRNA was generated for the mutants and 50 nl (50 ng) was injected into manually defoliculated stage V Xenopus laevis oocytes using an Inject+Matic microinjector (J.A. Gabay, Inject+Matic, Geneva, Switzerland). Injected oocytes were stored at 16°C in ND96 buffer [in millimolar concentrations, NaCl 96, KCl 2, CaCl2 1.8, MgCl2 1, sodium pyruvate 5, and HEPES 5 (pH 7.6) supplemented with 50 μg/ml gentamycin and 50 μg/ml tetracycline]. Three to seven days postinjection two-electrode voltage clamp recordings were made from oocytes bathed in divalent-free ND96 buffer (in millimolar concentrations, NaCl 96, KCl 2, sodium pyruvate 5, HEPES 5, and 0.1 flufenamic acid, pH 7.6). Oocytes were voltage clamped at a holding potential of −60 mV with a GeneClamp500B amplifier (Molecular Devices).
# Inhibition by the antagonists was expressed as the percentage of the peak current amplitude of an EC90 concentration of ATP recorded before the application of antagonist (ATP gave reproducible responses to ATP in the absence of antagonist). Inhibition curves were fitted with the Hill equation (variable slope) using GraphPad Prism 6 (GraphPad Software, San Diego, CA). […]
# [4] = test system: P2X7R left flipper point mutant K281A; test: as above; assay type: cell-based, human
# Experimental: as §1
# Electrophysiological traces were digitized with a Digidata 1322A and collected using pCLAMP 8.2 software (Molecular Devices, Menlo Park, CA). An EC90 concentration of ATP was used to test antagonist sensitivity for the P2X7-2Nβ and mutant receptors [ATP sensitivity of the chimeras and mutants are reported in [Allsopp et al. (2017)]] to standardize for any changes in ATP sensitivity.
# Inhibition by the antagonists was expressed as the percentage of the peak current amplitude of an EC90 concentration of ATP recorded before the application of antagonist (ATP gave reproducible responses to ATP in the absence of antagonist). […] Any significant differences from the P2X7-2Nβ control were calculated by one-way analysis of variance, followed by Dunnett’s test (using GraphPad Prism 6). […]
# [5] = test system: chimeric P2X7/1 receptor 295–310; test: cell-based; assay type: cell-based, human; settings: chimera 295–310
# Experimental: as §3, §2
# T2 sequence (Q99572 whole entry N16P/T19I/R20V/I21V/Q22R/S23N/M24R/N25R/Y26L): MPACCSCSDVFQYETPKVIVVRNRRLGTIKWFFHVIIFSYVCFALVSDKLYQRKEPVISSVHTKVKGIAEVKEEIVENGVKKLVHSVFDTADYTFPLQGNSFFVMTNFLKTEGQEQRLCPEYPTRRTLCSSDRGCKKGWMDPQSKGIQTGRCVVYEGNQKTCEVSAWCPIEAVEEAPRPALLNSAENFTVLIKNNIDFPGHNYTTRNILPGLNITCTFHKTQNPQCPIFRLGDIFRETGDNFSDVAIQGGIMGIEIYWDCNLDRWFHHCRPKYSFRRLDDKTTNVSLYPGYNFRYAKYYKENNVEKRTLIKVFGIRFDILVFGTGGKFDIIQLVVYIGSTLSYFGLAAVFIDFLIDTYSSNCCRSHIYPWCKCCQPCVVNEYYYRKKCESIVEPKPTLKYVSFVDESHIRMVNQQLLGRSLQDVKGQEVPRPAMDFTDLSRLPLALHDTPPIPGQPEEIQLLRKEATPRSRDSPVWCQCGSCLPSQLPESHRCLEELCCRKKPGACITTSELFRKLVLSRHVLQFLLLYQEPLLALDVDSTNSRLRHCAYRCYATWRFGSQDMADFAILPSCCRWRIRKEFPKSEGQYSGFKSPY
# T5 sequence (Q99572 whole entry N16P/T19I/R20V/I21V/Q22R/S23N/M24R/N25R/Y26L/P96A): as the sequence (Q99572 whole entry N16P/T19I/R20V/I21V/Q22R/S23N/M24R/N25R/Y26L) above, with P96A counted along it
# T6 sequence (Q99572 whole entry N16P/T19I/R20V/I21V/Q22R/S23N/M24R/N25R/Y26L/S165F): as the sequence (Q99572 whole entry N16P/T19I/R20V/I21V/Q22R/S23N/M24R/N25R/Y26L) above, with S165F counted along it
# T4 sequence (Q99572 whole entry N16P/T19I/R20V/I21V/Q22R/S23N/M24R/N25R/Y26L/F88W): as the sequence (Q99572 whole entry N16P/T19I/R20V/I21V/Q22R/S23N/M24R/N25R/Y26L) above, with F88W counted along it
# T1 sequence (Q99572 whole entry N16P/T19I/R20V/I21V/Q22R/S23N/M24R/N25R/Y26L/A91C): as the sequence (Q99572 whole entry N16P/T19I/R20V/I21V/Q22R/S23N/M24R/N25R/Y26L) above, with A91C counted along it
# T3 sequence (P51575 whole entry): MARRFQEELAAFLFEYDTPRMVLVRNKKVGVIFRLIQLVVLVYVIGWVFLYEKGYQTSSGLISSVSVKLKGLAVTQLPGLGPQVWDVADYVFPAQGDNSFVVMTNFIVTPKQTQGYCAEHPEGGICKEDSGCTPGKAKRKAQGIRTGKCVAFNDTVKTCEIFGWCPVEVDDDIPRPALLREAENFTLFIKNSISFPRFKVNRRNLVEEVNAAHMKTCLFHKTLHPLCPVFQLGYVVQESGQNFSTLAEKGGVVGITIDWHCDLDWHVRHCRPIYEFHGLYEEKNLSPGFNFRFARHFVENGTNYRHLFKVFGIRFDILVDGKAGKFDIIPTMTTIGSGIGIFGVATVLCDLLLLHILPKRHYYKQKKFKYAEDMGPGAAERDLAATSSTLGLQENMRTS
Structure (SMILES),pIC50 (P2X7R point mutant A91C),pIC50 (P2X7-2Nβ receptor),inhibition of ATP (EC90)-evoked currents (hP2X1R),pIC50 (P2X7R point mutant F88W),pIC50 (P2X7R point mutant P96A),pIC50 (P2X7R point mutant S165F),fold decrease in antagonist affinity [1] [fold],effect on antagonist binding (P2X7R mutant Insert G99),fold decrease in antagonist sensitivity relative to P2X7-2Nβ [2] [fold],effect on antagonist sensitivity relative to P2X7-2Nβ [3],fold decrease in antagonist sensitivity relative to P2X7-2Nβ [4] [fold],fold decrease in antagonist sensitivity relative to P2X7-2Nβ [5] [fold]
"Cl.Clc1cccc(-c2nnnn2Cc2cccnc2)c1Cl.O [A438079, 3-(5-(2,3-dichlorophenyl)-1H-tetrazol-1-yl)methyl pyridine hydrochloride hydrate]",4.70,6.03 and 6.00,ineffective,5.50,4.90,5.10,,,,,,
"Cl.Cl.O=C(CC12CC3CC(CC(C3)C1)C2)Nc1cccc2nc(NCCNCCO)ccc12 [AZ10606120, N-[2-[[2-[(2-hydroxyethyl)amino]ethyl]amino]-5-quinolinyl]-2-tricyclo[3.3.1.13,7]dec-1-ylacetamide dihydrochloride]",,,,,,,> 300,little effect,,,,
"COc1ccc(CC(=O)NC(N=C(NC#N)Nc2cccc3ncccc23)C(C)(C)C)cc1OC (centres unmarked) [A740003, N-[1-[[(cyanoamino)(5-quinolinylamino)methylene]amino]-2,2-dimethylpropyl]-3,4-dimethoxybenzeneacetamide]",5.60,7.10,,6.80,6.50,6.70,,,~3,no effect,~4,~5
